Data on 50 compounds can be found in patent US20140288040A1, “SUBSTITUTED BENZYLAMINE COMPOUNDS, THEIR USE IN MEDICINE, AND IN PARTICULAR THE TREATMENT OF HEPATITIS C VIRUS (HCV) INFECTION” (ASTEX THERAPEUTICS LIMITED, priority 2011, published 2014).

This assay has as its target T1, HCV NS3 protease (full length NS34a) (Hepatitis C virus genotype 1b, UniProt P26663).
T1 construct: The protease activity of the full length NS34a was measured using a FRET-based assay; made in house
Briefly: HCV NS3 protease assay (FRET, full length NS34a). The format is biochemical. On the procedure: The HCV NS3 protease functions have been extensively studied and are considered as potential targets for antiviral therapy: see for example the many references listed in the introductory section of this application. Therefore, the activity of the compounds of the invention as anti-HCV agents was assessed using a full length HCV NS3 protease.
The protease activity of the full length NS34a was measured using a FRET-based assay utilizing a peptide substrate derived from the NS4AB cleavage site (Anaspec) and labelled at one end with a quencher (QXL520) and at the other with a fluorophore (5-FAMsp). NS34a (produced in-house by literature methods) was incubated with test compounds and peptide substrate in 50 mM Tris pH8, 20 mM DTT, 1% CHAPS, 10% glycerol and 5% DMSO. The reaction was followed by monitoring the change in fluorescence on a Molecular Devices Gemini plate reader for 30 minutes at room temperature. Initial rates were calculated from the progress curves using SoftMax Pro (Molecular Devices). IC50 values were then calculated from replicate curves using Prism GraphPad software.

The mark [1] stands for this setting: protease activity of full length NS34a, FRET peptide substrate, read-out: Activity IC50.
Setting [2] is: IC50 values of 10-150 μM against the protease activity of the full length NS34a, or at least 40% inhibition of protease activity at a concentration of 100 μM.

The structures appear in SMILES notation. Structures can show the parent of a compound that is named as a salt. Where two headings read alike, the source gives them in different places.

T1 sequence (P26663 1658-1711): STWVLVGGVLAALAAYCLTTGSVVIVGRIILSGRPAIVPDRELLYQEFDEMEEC
T1 sequence (P26663 1027-1657): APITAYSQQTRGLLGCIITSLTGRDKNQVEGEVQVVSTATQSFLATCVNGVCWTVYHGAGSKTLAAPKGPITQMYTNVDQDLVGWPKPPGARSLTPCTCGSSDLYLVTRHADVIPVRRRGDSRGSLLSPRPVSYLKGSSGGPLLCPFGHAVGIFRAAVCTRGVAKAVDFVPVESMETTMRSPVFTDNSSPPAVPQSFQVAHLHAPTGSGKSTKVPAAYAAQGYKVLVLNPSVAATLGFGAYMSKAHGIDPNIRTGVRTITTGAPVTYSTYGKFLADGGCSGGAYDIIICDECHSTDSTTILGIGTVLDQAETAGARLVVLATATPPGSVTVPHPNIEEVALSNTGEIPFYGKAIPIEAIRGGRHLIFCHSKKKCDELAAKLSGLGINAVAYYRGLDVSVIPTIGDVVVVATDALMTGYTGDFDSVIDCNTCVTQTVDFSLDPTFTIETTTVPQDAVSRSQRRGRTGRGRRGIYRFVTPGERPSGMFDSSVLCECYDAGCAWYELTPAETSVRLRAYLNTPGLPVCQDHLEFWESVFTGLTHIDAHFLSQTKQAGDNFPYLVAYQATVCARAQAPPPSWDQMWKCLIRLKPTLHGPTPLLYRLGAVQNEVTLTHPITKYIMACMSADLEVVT

Regarding `CC[C@@H](N[C@@H](C)CC(=O)NCCNC1CC1)c1ccc(Cl)c(Oc2ccccc2)c1F` [Example 321], under setting [1], the IC50 came out at 1.6 µM. The compound `C[C@H](CC(N)=O)N[C@H](CC1CCOCC1)c1ccc(Cl)c(Oc2ccccc2)c1F` [Example 257] displayed an IC50 under setting [2] of 10 to 150 µM.

As to `CC[C@@H](N)c1ccc(Cl)c(Oc2ccc(CO)cc2)c1F` [Example 183], the half-inhibitory concentration (IC50) under setting [1] is 1.2 µM.

`CC[C@@H](N[C@H](C)CC(=O)NC(C)(C)CO)c1ccc(Cl)c(Oc2ccccc2)c1F` [Example 269]: the IC50 under setting [2] fell in the range of 10 to 150 µM. Same read-out and setting: with `CC[C@@H](N[C@@H](C)CC(=O)N[C@H]1C[C@@H](N)C1)c1ccc(Cl)c(Oc2ccccc2)c1F` [Example 320] the figure was 10 to 150 µM; with `CC[C@@H](N[C@@H](C)CC(=O)NCC(=O)OC)c1ccc(Cl)c(Oc2ccccc2)c1F` [Example 159], 10 to 150 µM. With `CC[C@@H](N)c1ccc(Cl)c(Oc2ccccc2)c1Cl` [Example 262], the IC50 under setting [1] stood at 5.9 µM. Still for that read-out and setting: with `CC[C@@H](N[C@@H](C)c1[nH]cnc1C)c1ccc(Cl)c(Oc2ccccc2)c1F` [Example 148] the figure was 1.7 µM. The compound `C[C@H](CC(N)=O)N[C@@H](CC1CCOCC1)c1ccc(Cl)c(Oc2ccccc2)c1F` [Example 258] yielded an IC50 under setting [2] of 10 to 150 µM.

Consider `CCC(Nc1ccncc1)c1ccc(F)c(Oc2ccccc2)c1F` (centres unmarked) [Example 113, [1-(2,4-Difluoro-3-phenoxy-phenyl)-propyl]-pyridin-4-yl-amine.hydrochloride], for which the concentration for half-maximal inhibition (IC50) under setting [1] was 0.68 µM. Take `C[C@H](N)c1ccc(Cl)c(Oc2ccccc2)c1F` [Example 342]: under setting [1], the half-inhibitory concentration (IC50) is 2.7 µM.

In the case of `CC[C@@H](NCCC(N)=O)c1ccc(F)c(Oc2ccccc2)c1F` [Example 122], the IC50 under setting [1] is 1 µM.

With `CCC(NCc1cnc(C)n1C)c1ccc(F)c(Oc2ccccc2)c1F` (centres unmarked) [Example 23], under setting [2], the half-maximal inhibitory concentration (IC50) lay within 10 to 150 µM. Regarding `CC[C@H](Nc1ncc(CN)cn1)c1ccc(Cl)c(Oc2ccccc2)c1F` [Example 330], the IC50 under setting [1] was found to be 1.1 µM. `CCC(NCc1ncc[nH]1)c1ccc(F)c(Oc2ccccc2)c1F` (centres unmarked) [Example 292]: under setting [2], the IC50 lay within 10 to 150 µM. Regarding `CC[C@H](Nc1ccncc1)c1ccc(F)c(Oc2ccccc2)c1F` [Example 144, [(S)-1-(2,4-Difluoro-3-phenoxy-phenyl)-propyl]-pyridin-4-yl-amine. hydrochloride], under setting [1], the IC50 turned out to be 0.4 µM. Still for that read-out and setting: the figure for `CC[C@@H](N)c1ccc(Cl)c(Oc2ccc([N+](=O)[O-])cc2)c1F` [Example 197] is 2.6 µM. Regarding `C[C@H](CC(N)=O)NCc1ccc(F)c(Oc2ccccc2)c1F` [Example 327], under setting [2], the concentration for half-maximal inhibition (IC50) is 10 to 150 µM.

In the case of `NC(c1ccc(F)c(Oc2ccccc2)c1F)C1CCOCC1` (centres unmarked) [Example 41], the 50% inhibitory concentration (IC50) under setting [1] was determined as 7.1 µM. The same measure, in the same setting: with `CC[C@@H](N)c1ccc(Cl)c(Oc2cccc(NC(=O)NCC(F)(F)F)c2)c1F` [Example 171, 1-{3-[3-((R)-1-Amino-propyl)-6-chloro-2-fluoro-phenoxy]-phenyl}-3-(2,2,2-trifluoro-ethyl)-urea.hydrochloride] the figure was 7.7 µM. Take `CCC(NC(C)c1ccn[nH]1)c1ccc(F)c(Oc2ccccc2)c1F` (centres unmarked) [Example 33]: under setting [2], the IC50 fell in the range of 10 to 150 µM. Turning to `CC[C@@H](N)c1ccc(Cl)c(Oc2ccc(N)cn2)c1F` [Example 156, 6-[3-((R)-1-Amino-propyl)-6-chloro-2-fluoro-phenoxy]-pyridin-3-ylamine.dihydrochloride], the IC50 under setting [1] was determined as 6.2 µM.

As for `C[C@@H](CC(=O)NCCN)N[C@H](C)c1ccc(Cl)c(Oc2ccccc2)c1F` [Example 339], where the note is “read-out: Activity % inhibition @ 0.01 μM, 0.01 μM compound”, the inhibition at 0.01 µM was found to be 65%. As to `CC[C@H](N)c1ccc(Cl)c(Oc2cccc(CO)c2)c1F` [Example 111, {3-[3-((S)-1-Amino-propyl)-6-chloro-2-fluoro-phenoxy]-phenyl}-methanol.hydrochloride], the IC50 under setting [1] was 0.63 µM. In turn, `CC[C@@H](N[C@H](C)CC(=O)NC(C)C)c1ccc(Cl)c(Oc2ccccc2)c1F` [Example 304] showed an IC50 under setting [2] of 10 to 150 µM.

For the compound `CC[C@@H](N)c1ccc(Cl)c(Oc2ccc(C3(C#N)CC3)cc2)c1F` [Example 192], the IC50 under setting [1] was determined as 3.1 µM. In the case of `CCC(NC[C@@H](O)CO)c1ccc(F)c(Oc2ccccc2)c1F` (some centres unmarked) [Example 69], the IC50 under setting [1] is 6 µM. For `CCC(CC)[C@H](N)c1ccc(Cl)c(Oc2ccccc2)c1F` [Example 347], under setting [1], the IC50 came to 2.7 µM. For `N[C@@H](CC1CCOCC1)c1ccc(Cl)c(Oc2ccccc2)c1F` [Example 276B, (S)-1-(4-Chloro-2-fluoro-3-phenoxy-phenyl)-2-(tetrahydro-pyran-4-yl)-ethylamine.hydrochloride], the IC50 under setting [2] is 10 to 150 µM. Same read-out and setting: the figure for `CCC[C@@H](N[C@H](C)CC(N)=O)c1ccc(Cl)c(Oc2ccccc2)c1F` [Example 126] is 10 to 150 µM. On to `CCc1ncc(CNC(CC)c2ccc(F)c(Oc3ccccc3)c2F)[nH]1` (centres unmarked) [Example 38], for which the IC50 under setting [1] was determined as 9.7 µM. On the same count and under the same terms, the figure for `C[C@@H](CC(N)=O)NCc1ccc(F)c(Oc2ccccc2)c1F` [Example 326] is 3.9 µM. Same read-out and setting: the figure for `CC[C@@H](N)c1ccc(Cl)c(Oc2ccc(CC#N)cc2)c1F` [Example 179] is 0.61 µM. Under setting [2], `CC[C@@H](N[C@H](C)CC(N)=O)c1ccc(Cl)c(Oc2ccc(C#N)nc2)c1F` [Example 247] came in with an IC50 of 10 to 150 µM. In the case of `CC[C@@H](N)c1ccc(Cl)c(Oc2ccc(C)nc2)c1F` [Example 180], under setting [1], the IC50 amounted to 3.7 µM. Same read-out and setting: with `CC[C@@H](N)c1ccc(Cl)c(Oc2cccc(C(N)=O)c2)c1F` [Example 172] the figure was 3.7 µM; with `CC[C@H](N)c1ccc(Cl)c(Oc2ccccc2)c1Cl` [Example 261, (S)-1-(2,4-Dichloro-3-phenoxy-phenyl)-propylamine.hydrochloride], 1.2 µM.

`CC[C@@H](N[C@@H](CC(N)=O)C(C)C)c1ccc(Cl)c(Oc2ccccc2)c1F` [Example 142]: the IC50 under setting [2] lay within 10 to 150 µM. Same read-out and setting: with `C[C@H](CC(N)=O)N[C@H](C)c1ccc(Cl)c(Oc2ccccc2)c1F` [Example 335] the figure was 10 to 150 µM. For the compound `CC[C@H](N[C@@H](C)c1c[nH]cn1)c1ccc(Cl)c(Oc2ccccc2)c1F` [Example 129], the 50% inhibitory concentration (IC50) under setting [1] was 0.36 µM.

Turning to `CC[C@@H](N[C@H](C)CC(N)=O)c1ccc(Cl)c(Oc2ccc(-c3cnco3)c(C)c2)c1F` [Example 318], under setting [1], the IC50 is 6.4 µM. Same read-out and setting: with `N[C@@H](c1ccc(Cl)c(Oc2ccccc2)c1F)C1CCOCC1` [Example 356] the figure was 6.4 µM; with `CC[C@@H](N)c1ccc(Cl)c(Oc2ccnc(Cl)c2)c1F` [Example 167], 6.1 µM; with `CC[C@H](N)c1ccc(Cl)c(Oc2cccc(C(C)O)c2)c1F` (stereo partly drawn) [Example 132B, 1-{3-[3-((S)-1-Amino-propyl)-6-chloro-2-fluoro-phenoxy]-phenyl}-ethanol.hydrochloride], 0.52 µM. Compound `N[C@H](CC1CCOCC1)c1ccc(Cl)c(Oc2ccccc2)c1F` [Example 276A, (R)-1-(4-Chloro-2-fluoro-3-phenoxy-phenyl)-2-(tetrahydro-pyran-4-yl)-ethylamine. hydrochloride] had an IC50 under setting [2] of 10 to 150 µM.

In the case of `CC[C@@H](N[C@@H](C)C(=O)N(C)C)c1ccc(Cl)c(Oc2ccccc2)c1F` [Example 332], the IC50 under setting [2] was 10 to 150 µM. The same measure, in the same setting: with `NC(CO)c1ccc(F)c(Oc2ccccc2)c1F` (centres unmarked) [Example 46, 2-Amino-2-(2,4-difluoro-3-phenoxy-phenyl)-ethanol. hydrochloride] the figure was 10 to 150 µM; with `CC[C@@H](N[C@@H](C)CC(=O)N(C)OC)c1ccc(Cl)c(Oc2ccccc2)c1F` [Example 161], 10 to 150 µM. Still for that read-out and setting: the figure for `CC[C@@H](N[C@H](C)CC(=O)NCC(N)=O)c1ccc(Cl)c(Oc2ccccc2)c1F` [Example 177] is 10 to 150 µM.

Take `CC[C@@H](N[C@H](C)c1c[nH]cn1)c1ccc(Cl)c(Oc2ccccc2)c1F` [Example 130]: the IC50 under setting [1] was determined as 1.3 µM.

By IC50 is commonly meant the midpoint of a concentration-inhibition curve. As usually defined, the inhibition is how much of the control response was suppressed.
